In ChEMBL document CHEMBL2434863, “Synthesis and in vitro/in vivo antibacterial activity of oxazolidinones having thiocarbamate at C-5 on the A-ring and an amide- or urea-substituted [1,2,5]triazepane or [1,2,5]oxadiazepane as the C-ring” (Eur J Med Chem, 2013):

Columns and labels:
Format in all cases: functional
Enterococcus faecalis = assay: Antibacterial activity against Enterococcus faecalis SR1004 clinical isolate assessed as growth inhibition by broth microdilution method
Staphylococcus aureus [1] = assay: Antibacterial activity against Staphylococcus aureus SR20549 clinical isolate assessed as growth inhibition by broth microdilution method
Staphylococcus aureus [2] = assay: Antibacterial activity against linezolid-resistant Staphylococcus aureus NRS271 assessed as growth inhibition by broth microdilution method
Haemophilus influenzae = assay: Antibacterial activity against Haemophilus influenzae SR27914 clinical isolate assessed as growth inhibition by broth microdilution method
Staphylococcus aureus [3] = assay: Antibacterial activity against Staphylococcus aureus Smith assessed as growth inhibition by broth microdilution method
Moraxella catarrhalis = assay: Antibacterial activity against Moraxella catarrhalis SR26840 clinical isolate assessed as growth inhibition by broth microdilution method
Streptococcus pneumoniae = assay: Antibacterial activity against Streptococcus pneumoniae SR26207 clinical isolate assessed as growth inhibition by broth microdilution method
Enterococcus faecium = assay: Antibacterial activity against Enterococcus faecium SR7940 clinical isolate assessed as growth inhibition by broth microdilution method

| Compound | MIC (Enterococcus faecalis) [µg/mL] | MIC (Staphylococcus aureus [1]) [µg/mL] | MIC (Staphylococcus aureus [2]) [µg/mL] | MIC (Haemophilus influenzae) [µg/mL] | MIC (Staphylococcus aureus [3]) [µg/mL] | MIC (Moraxella catarrhalis) [µg/mL] | MIC (Streptococcus pneumoniae) [µg/mL] | MIC (Enterococcus faecium) [µg/mL] |
| --- | --- | --- | --- | --- | --- | --- | --- | --- |
| CONC(=O)N1CCN(c2ccc(N3C[C@H](CNC(=S)OC)OC3=O)cc2F)CCN1 | 0.5 | 1 | 16 | 16 | 1 | 4 | 0.25 | 0.5 |
| CONC(=O)N1CCN(c2c(F)cc(N3C[C@H](CNC(=S)OC)OC3=O)cc2F)CCO1 | 1 | 0.5 | 8 | 16 | 1 | 2 | 0.125 | 0.5 |
| CC(=O)NC[C@H]1CN(c2ccc(-c3ccc(N4CCON(C(=O)CO)CC4)nc3)c(F)c2)C(=O)O1 | 1 | 1 | 8 | 16 | 2 | 16 | 0.125 | 1 |
| O=C(CO)N1CCN(c2ccc(-c3ccc(N4C[C@H](Cn5ccnn5)OC4=O)cc3F)cn2)CCO1 | 2 | 1 | 8 | 32 | 2 | 8 | 0.25 | 1 |
| NC(=O)N1CCN(c2c(F)cc(N3C[C@H](Cn4ccnn4)OC3=O)cc2F)CCO1 | 4 | 1 | 32 | 16 | 2 | 8 | 1 | 4 |
| NC(=O)N1CCN(c2c(F)cc(N3C[C@H](CNc4ccon4)OC3=O)cc2F)CCN1 | 1 | 0.5 | 16 | 16 | 1 | 8 | 0.125 | 1 |
| CNC(=O)N1CCN(c2c(F)cc(N3C[C@H](CNC(=S)OC)OC3=O)cc2F)CCO1 | 1 | 0.5 | 4 | 32 | 0.5 | 2 | 0.125 | 0.5 |
| CNC(=O)N1CCN(c2c(F)cc(N3C[C@H](Cn4ccnn4)OC3=O)cc2F)CCO1 | 4 | 2 | 32 | 32 | 8 | 16 | 1 | 2 |
| COC(=S)NC[C@H]1CN(c2ccc(N3CCNN(C(=O)NO)CC3)c(F)c2)C(=O)O1 | 1 | 0.5 | 16 | 4 | 1 | 4 | ≤ 0.063 | 1 |
| O=C(NO)N1CCN(c2c(F)cc(N3C[C@H](Cn4ccnn4)OC3=O)cc2F)CCN1 | 8 | 2 | 64 | 16 | 4 | 8 | 0.5 | 8 |
| O=C(NO)N1CCN(c2c(F)cc(N3C[C@H](Cn4ccnn4)OC3=O)cc2F)CCO1 | 4 | 2 | 64 | 16 | 2 | 8 | 0.5 | 4 |
| CC(=O)NC[C@H]1CN(c2cc(F)c(N3CCn4c(=O)c5cc(N)cnc5n4CC3)c(F)c2)C(=O)O1 | 2 | 1 | 8 | 32 | 0.5 | 8 | 0.25 | 2 |
| Nc1cnc2c(c1)c(=O)n1n2CCN(c2c(F)cc(N3C[C@H](Cn4ccnn4)OC3=O)cc2F)CC1 | 2 | 1 | 16 | 32 | 1 | 16 | 0.25 | 2 |
| NC(=O)N1CCN(c2c(F)cc(N3C[C@H](Cn4ccnn4)OC3=O)cc2F)CCN1 | 2 | 1 | 32 | 16 | 1 | 4 | 0.5 | 4 |
| CC(=O)N1CCN(c2c(F)cc(N3C[C@H](Cn4ccnn4)OC3=O)cc2F)CCN1 | 2 | 1 | 16 | 32 | 2 | 16 | 1 | 2 |
| O=C(C(F)F)N1CCN(c2c(F)cc(N3C[C@H](Cn4ccnn4)OC3=O)cc2F)CCN1 | 1 | 0.5 | 16 | 16 | 1 | 8 | 0.125 | 1 |
| O=C(C(F)F)N1CCN(c2c(F)cc(N3C[C@H](CNc4ccon4)OC3=O)cc2F)CCN1 | 0.5 | 0.5 | 8 | 16 | 1 | 4 | 0.125 | 0.5 |
| CC(=O)NC[C@H]1CN(c2ccc(N3CCn4c(=O)c5cccnc5n4CC3)c(F)c2)C(=O)O1 | 2 | 2 | 16 | 32 | 1 | 16 | 0.5 | 2 |
| CC(=O)NC[C@H]1CN(c2cc(F)c(N3CCn4c(=O)c5cccnc5n4CC3)c(F)c2)C(=O)O1 | 1 | 1 | 8 | 16 | 0.5 | 4 | 0.25 | 1 |
| O=C1O[C@@H](Cn2ccnn2)CN1c1ccc(N2CCn3c(=O)c4cccnc4n3CC2)c(F)c1 | 4 | 2 | 64 | 32 | 4 | 32 | 1 | 4 |
| O=C1O[C@@H](Cn2ccnn2)CN1c1cc(F)c(N2CCn3c(=O)c4cccnc4n3CC2)c(F)c1 | 1 | 0.5 | 8 | 32 | 2 | 8 | 0.5 | 1 |
| CC(=O)NC[C@H]1CN(c2cc(F)c(N3CCn4c(=O)c5cc(Cl)cnc5n4CC3)c(F)c2)C(=O)O1 | 2 | 1 | 8 | 64 | 1 | 4 | 0.25 | 1 |
| CC(=O)NC[C@H]1CN(c2cc(F)c(N3CCn4c(=O)c5cc(Br)cnc5n4CC3)c(F)c2)C(=O)O1 | 2 | 1 | 8 | 64 | 1 | 4 | 0.25 | 1 |
| CC(=O)N1CCN(c2c(F)cc(N3C[C@H](CNC(C)=S)OC3=O)cc2F)CCO1 | 0.5 | 0.25 | 4 | 8 | 1 | 2 | 0.125 | 0.5 |
| COC(=S)NC[C@H]1CN(c2cc(F)c(N3CCNN(C(C)=O)CC3)c(F)c2)C(=O)O1 | 1 | 0.5 | 4 | 32 | 1 | 2 | 0.125 | 0.5 |
